Experimental data: patent US20090156582A1, “Pyrazole Compound” (priority 2005, published 2009)

biological target: T1, recombinant GSK3β enzyme (human GSK3β) (Homo sapiens, UniProt P49841); experiment: Measurement of GSK3β inhibitory activity; format: biochemical; conditions: glycogen synthase peptide substrate, Kinase Glo luminescence, read-out: IC50 (concentration of test compound needed for 50% inhibition of luminescent intensity), GSK3β inhibitory activity
T1 construct: FLAG (N); made in house; host or cells: Sf-21 insect cells, recombinant baculovirus (pFASTBAC1 / BAC-TO-BAC)
T1 sequence (P49841 whole entry): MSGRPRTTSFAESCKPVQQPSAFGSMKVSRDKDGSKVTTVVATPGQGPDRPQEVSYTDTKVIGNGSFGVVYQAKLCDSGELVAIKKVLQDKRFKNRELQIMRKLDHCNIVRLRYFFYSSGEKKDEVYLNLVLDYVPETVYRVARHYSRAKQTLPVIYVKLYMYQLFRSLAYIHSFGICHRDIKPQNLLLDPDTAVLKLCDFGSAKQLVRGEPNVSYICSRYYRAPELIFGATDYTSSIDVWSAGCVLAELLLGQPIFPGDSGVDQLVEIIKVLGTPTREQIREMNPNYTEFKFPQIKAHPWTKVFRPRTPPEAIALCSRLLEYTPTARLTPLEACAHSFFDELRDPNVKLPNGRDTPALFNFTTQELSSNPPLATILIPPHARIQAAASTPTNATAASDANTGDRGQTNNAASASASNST
How it was run: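 FLAG-purified human GSK3β expressed in baculovirus-infected Sf-21 cells; reaction with 2.5 μM ATP (stock solution) at room temperature, 30 min. Residual ATP measured by Kinase-Glo luminescence; IC50 as concentration inhibiting 50% of luminescent intensity.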

IC50 [nM]	Compound
< 100	N#CCCNC(=O)c1n[nH]cc1NC(=O)c1ccccc1 [Example 420, 4-(benzoylamino)-N-(2-cyanoethyl)-1H-pyrazole-3-carboxamide]
< 100	Cc1cccc(C(=O)Nc2c[nH]nc2C(=O)NCCOC(C)C)n1 [Example 426, N-(3-(((2-isopropoxyethyl)amino)carbonyl)-1H-pyrazol-4-yl)-6-methylpyridine-2-carboxamide]
< 100	Cc1cccc(C(=O)Nc2c[nH]nc2C(=O)NCCC#N)n1 [Example 387, N-(3-(((2-cyanoethyl)amino)carbonyl)-1H-pyrazol-4-yl)-6-methylpyridine-2-carboxamide]
< 100	CC(C)NC(=O)c1n[nH]cc1NC(=O)c1ccc(Oc2ccccc2)cc1 [compound 032]
< 100	O=C(Nc1c[nH]nc1C(=O)NCc1ccco1)c1ccccn1 [Example 347, N-(3-(((2-furylmethyl)amino)carbonyl)-1H-pyrazol-4-yl)pyridine-2-carboxamide]
300	O=C(Nc1c[nH]nc1C(=O)NC1CCc2ccccc21)c1ccccn1 (stereo not drawn) [Example 340]
< 100	CC(=O)Nc1cccc(C(=O)Nc2c[nH]nc2C(=O)NCCc2ccccc2)c1 [Example 137, 4-{[3-(acetylamino)benzoyl]amino}-N-(2-phenylethyl)-1H-pyrazole-3-carboxamide]
233	CC(C)NC(=O)c1n[nH]cc1NC(=O)Cc1ccc(-c2ccccc2)cc1 [compound 022]
< 100	CC(=O)Nc1cccc(C(=O)Nc2c[nH]nc2C(=O)NCC(=O)c2ccccc2)c1 [Example 374, 4-((3-(acetylamino)benzoyl)amino)-N-(2-oxo-2-phenylethyl)-1H-pyrazole-3-carboxamide]
< 100	CNC(=O)c1n[nH]cc1NC(=O)COc1ccccc1 [compound 004]
< 100	COc1ccc(C(=O)Nc2c[nH]nc2C(=O)NCc2ccccc2)cc1 [Example 112, N-benzyl-4-[(4-methoxybenzoyl)amino]-1H-pyrazole-3-carboxamide]
< 100	N#Cc1ccc(NCCNC(=O)c2n[nH]cc2NC(=O)c2ccccn2)nc1 [Example 350]
< 100	Cc1cccc(C(=O)Nc2c[nH]nc2C(=O)NCCC#N)c1 [Example 413, N-(2-cyanoethyl)-4-(3-methylbenzoylamino)-1H-pyrazole-3-carboxamide]
< 100	O=C(COc1ccccc1)Nc1c[nH]nc1C(=O)NCc1ccccc1 [Example 101, N-benzyl-4-[(phenoxyacetyl)amino]-1H-pyrazole-3-carboxamide]
< 100	CC(=O)Nc1cccc(C(=O)Nc2c[nH]nc2C(=O)NCCOc2ccccc2)c1 [Example 369, 4-((3-(acetylamino)benzoyl)amino)-N-(2-phenoxyethyl)-1H-pyrazole-3-carboxamide]
< 100	CC(=O)Nc1cccc(C(=O)Nc2c[nH]nc2C(=O)NCCS(C)(=O)=O)c1 [Example 382, 4-((3-(acetylamino)benzoyl)amino)-N-(2-(methylsulfonyl)ethyl)-1H-pyrazole-3-carboxamide]
< 100	CC(C)NC(=O)c1n[nH]cc1NC(=O)c1ccc(-c2ccccc2)cc1 [compound 028]
< 100	O=C(CNC(=O)c1n[nH]cc1NC(=O)c1ccccn1)c1ccccc1 [Example 359, N-(3-(((2-oxo-2-phenylethyl)amino)carbonyl)-1H-pyrazol-4-yl)pyridine-2-carboxamide]
< 100	O=C(Nc1c[nH]nc1C(=O)NCCc1ccccc1)c1ccccn1 [Example 338, N-(3-(((2-phenylethyl)amino)carbonyl)-1H-pyrazol-4-yl)pyridine-2-carboxamide]
< 100	O=C(COc1ccccc1)Nc1c[nH]nc1C(=O)Nc1ccccc1 [compound 083]
234	O=C(Cc1ccc(-c2ccccc2)cc1)Nc1c[nH]nc1C(=O)NC1CCCC1 [compound 065]
< 100	O=C(Nc1c[nH]nc1C(=O)NCCNc1ccccc1)c1ccccn1 [Example 399, N-(3-(((2-anilinoethyl)amino)carbonyl)-1H-pyrazol-4-yl)pyridine-2-carboxamide]
< 100	O=C(Nc1c[nH]nc1C(=O)NCc1ccccc1)c1ccccc1 [Example 109, 4-(benzoylamino)-N-benzyl-1H-pyrazole-3-carboxamide]
< 100	CC(C)NC(=O)c1n[nH]cc1NC(=O)c1cnccn1 [compound 037]
< 100	Cc1cccc(C(=O)Nc2c[nH]nc2C(=O)NCC(F)(F)F)n1 [Example 389, 6-methyl-N-(3-(((2,2,2-trifluoroethyl)amino)carbonyl)-1H-pyrazol-4-yl)pyridine-2-carboxamide]

Continued, compound first:

Compound	IC50 [nM]
N#CCCNC(=O)c1n[nH]cc1NC(=O)c1ccco1 [Example 412, N-(2-cyanoethyl)-4-(2-furoylamino)-1H-pyrazole-3-carboxamide]	< 100
N#CCCNC(=O)c1n[nH]cc1NC(=O)c1cccs1 [Example 416, N-(2-cyanoethyl)-4-(2-thienylcarbonylamino)-1H-pyrazole-3-carboxamide]	< 100
COc1ncccc1C(=O)Nc1c[nH]nc1C(=O)NC1CCCC1 [Example 365, N-(3-((cyclopentylamino)carbonyl)-1H-pyrazol-4-yl)-2-methoxynicotinamide]	< 100
CCOCC(=O)Nc1c[nH]nc1C(=O)NCc1ccco1 [Example 147, 4-[(ethoxyacetyl)amino]-N-(2-furylmethyl)-1H-pyrazole-3-carboxamide]	< 100
Cc1ncccc1C(=O)Nc1c[nH]nc1C(=O)NC1CCCC1 [Example 363, N-(3-((cyclopentylamino)carbonyl)-1H-pyrazol-4-yl)-2-methylnicotinamide]	< 100
O=C(Nc1c[nH]nc1C(=O)NC1CCCC1)c1ccc(F)cc1F [compound 073]	< 100
CS(=O)(=O)Nc1c[nH]nc1C(=O)NC1CCCC1 [compound 227, N-cyclopentyl-4-methanesulfonylamino-1H-pyrzole-3-carboxamide]	274
N#CCCNC(=O)c1n[nH]cc1NC(=O)C1CCCC1 [Example 411, N-(2-cyanoethyl)-4-((cyclopentylcarbonyl)amino)-1H-pyrazole-3-carboxamide]	< 100
Cc1[nH]nc(C(=O)NC2CCCC2)c1NC(=O)c1ccccc1 [Example 378, 4-(benzoylylamino)-N-cyclopentyl-5-methyl-1H-pyrazole-3-carboxamide]	1000
O=C(Nc1c[nH]nc1C(=O)NC1CCCC1)c1ccc2[nH]ccc2c1 [compound 077]	< 100
COc1ccc(C(=O)Nc2c[nH]nc2C(=O)NC(C)C)cc1 [compound 030]	< 100
Cc1ccc(C(=O)Nc2c[nH]nc2C(=O)NC2CCCC2)cn1 [Example 364, N-(3-((cyclopentylamino)carbonyl)-1H-pyrazol-4-yl)-6-methylnicotinamide]	< 100
O=C(NC1CCCC1)c1n[nH]cc1NC(=O)C1CCCCC1 [compound 063]	< 100

test system: H4IIE-C3 cells; experiment: Measurement of sugar release suppressive action using cultured hepatocyte; format: cell-based; conditions: Rattus norvegicus, H4IIEC3, 3 h, test compound 10 μM, Dexamethasone 500 nM and 8CPT-cAMP 0.1 mM, GSK3β inhibitor free group is 100%, read-out: sugar release suppressive activity (released glucose content, relative value)
Procedure: H4IIE-C3 cells (from rat liver) were seeded on 24 well or 96 well collagen coated plate (manufactured by Falcon), and cultured in Dulbecco's Modified Eagle Medium (DMEM: manufactured by GIBCO) containing 10% FBS, 25 mM Glucose until the cells became sub-confluent. Then, the cells were starvation treated with DMEM containing 0% FBS and 5.6 mM glucose. The medium was exchanged to DMEM containing test compound adjusted to 10 μM and sugar production stimulant (Dexamethasone (500 nM), 8CPT-cAMP (0.1 mM)), and the cells were pretreated for 5 hr. After washing with PBS, the cells were cultured in Phenol Red-free, Glucose-free DMEM containing the test compound and sugar production stimulant for 3 hr, and the glucose content released in the medium was measured. A glucose measurement kit (A-22189) manufactured by Molecular Probes was used for the glucose measurement. The sugar release suppressive activity is shown in a relative value when the released glucose content of a GSK3β inhibitor free group is 100%.

Compound	activity at 10 µM [%]
Cc1ccc(C(=O)Nc2c[nH]nc2C(=O)NCC(F)(F)F)cn1 [Example 480, 6-methyl-N-(3-(((2,2,2-trifluoroethyl)amino)carbonyl)-1H-pyrazol-4-yl)pyridine-3-carboxamide]	69
Cc1cccc(C(=O)Nc2c[nH]nc2C(=O)NCCCOC(C)C)n1 [Example 430, N-(3-(((3-isopropoxypropyl)amino)carbonyl)-1H-pyrazol-4-yl)-6-methylpyridine-2-carboxamide]	76
CC(C)(C)OCCCNC(=O)c1n[nH]cc1NC(=O)c1ccccn1 [Example 455, N-(3-(((3-tert-butoxypropyl)amino)carbonyl)-1H-pyrazol-4-yl)pyridine-2-carboxamide]	79
N#CCCNC(=O)c1n[nH]cc1NC(=O)c1ccccc1 [Example 420, 4-(benzoylamino)-N-(2-cyanoethyl)-1H-pyrazole-3-carboxamide]	62
Cc1cccc(C(=O)Nc2c[nH]nc2C(=O)NCCOC(C)C)n1 [Example 426, N-(3-(((2-isopropoxyethyl)amino)carbonyl)-1H-pyrazol-4-yl)-6-methylpyridine-2-carboxamide]	55
N#CCCNC(=O)c1n[nH]cc1NC(=O)c1ccco1 [Example 412, N-(2-cyanoethyl)-4-(2-furoylamino)-1H-pyrazole-3-carboxamide]	74
N#CCCNC(=O)c1n[nH]cc1NC(=O)c1cccs1 [Example 416, N-(2-cyanoethyl)-4-(2-thienylcarbonylamino)-1H-pyrazole-3-carboxamide]	62
CC(C)(CO)CNC(=O)c1n[nH]cc1NC(=O)c1ccccn1 [Example 470, N-(3-(((3-hydroxy-2,2-dimethylpropyl)amino)carbonyl)-1H-pyrazol-4-yl)pyridine-2-carboxamide]	75
Cc1cccc(C(=O)Nc2c[nH]nc2C(=O)NCCC#N)n1 [Example 387, N-(3-(((2-cyanoethyl)amino)carbonyl)-1H-pyrazol-4-yl)-6-methylpyridine-2-carboxamide]	69
Cc1cccc(C(=O)Nc2c[nH]nc2C(=O)NCCC#N)c1 [Example 413, N-(2-cyanoethyl)-4-(3-methylbenzoylamino)-1H-pyrazole-3-carboxamide]	64
